In patent EP0946579B1, “NOVEL ERYTHROMYCIN DERIVATIVES, METHOD FOR PREPARING THEM AND THEIR USE AS MEDICINE” (Aventis Pharma S.A., priority 1996, dated 1998):
In brackets after ≈: the same amount, converted by molar mass.

How the values were obtained:
Format in all cases: cell-based
[1] = tested on: Streptococcus faecium groupe D 02D3HT1; experiment: Dilution method in liquid medium (MIC); details: Enterococcus faecium, incubation 24 h at 37°C, read-out: concentrations minimales inhibitrices (C.M.I.)
Experimental: (§1) Méthode des dilutions en milieu liquide
(§2) On a préparé une série de tubes dans lesquels on répartit une même quantité de milieu nutritif stérile. On distribue dans chaque tube des quantités croissantes du produit à étudier, puis chaque tube est ensemencé avec une souche bactérienne. Après incubation de vingt-quatre heures à l'étuve à 37°C, l'inhibition de la croissance est appréciée par transillumination de ce qui permet de déterminer les concentrations minimales inhibitrices (C.M.I.) exprimées en microgrammes/cm^3.

[2] = tested on: Staphylococcus epidermidis 012GO11I; experiment: Dilution method in liquid medium (MIC); details: incubation 24 h at 37°C, read-out: concentrations minimales inhibitrices (C.M.I.)
Experimental: as §1, §2

[3] = tested on: Streptococcus faecalis groupe D 02D2UC1; experiment: Dilution method in liquid medium (MIC); details: Enterococcus faecalis, incubation 24 h at 37°C, read-out: concentrations minimales inhibitrices (C.M.I.)
Experimental: as §1, §2

[4] = tested on: Streptococcus pneumoniae 032UC1; experiment: Dilution method in liquid medium (MIC); details: incubation 24 h at 37°C, read-out: concentrations minimales inhibitrices (C.M.I.)
Experimental: as §1, §2

[5] = tested on: Staphylococcus aureus 011UC4; experiment: Dilution method in liquid medium (MIC); details: incubation 24 h at 37°C, read-out: concentrations minimales inhibitrices (C.M.I.)
Experimental: as §1, §2

[6] = tested on: Streptococcus sp groupe G 02G0GR5; experiment: Dilution method in liquid medium (MIC); details: incubation 24 h at 37°C, read-out: concentrations minimales inhibitrices (C.M.I.)
Experimental: as §1, §2

[7] = tested on: Streptococcus agalactiae groupe B 02B1HT1; experiment: Dilution method in liquid medium (MIC); details: incubation 24 h at 37°C, read-out: concentrations minimales inhibitrices (C.M.I.)
Experimental: as §1, §2

[8] = tested on: Streptococcus mitis 02mitCB1; experiment: Dilution method in liquid medium (MIC); details: incubation 24 h at 37°C, read-out: concentrations minimales inhibitrices (C.M.I.)
Experimental: as §1, §2

[9] = tested on: Staphylococcus aureus 011G025I; experiment: Dilution method in liquid medium (MIC); details: incubation 24 h at 37°C, read-out: concentrations minimales inhibitrices (C.M.I.)
Experimental: as §1, §2

[10] = tested on: Streptococcus pyogenes groupe A 02A1UC1; experiment: Dilution method in liquid medium (MIC); details: incubation 24 h at 37°C, read-out: concentrations minimales inhibitrices (C.M.I.)
Experimental: as §1, §2

[11] = tested on: Streptococcus mitis 02mitGR16I; experiment: Dilution method in liquid medium (MIC); details: incubation 24 h at 37°C, read-out: concentrations minimales inhibitrices (C.M.I.)
Experimental: as §1, §2

[12] = tested on: Streptococcus agalactiae groupe B 02B1SJ1; experiment: Dilution method in liquid medium (MIC); details: incubation 24 h at 37°C, read-out: concentrations minimales inhibitrices (C.M.I.)
Experimental: as §1, §2

[13] = tested on: Haemophilus Influenzae 351CB12; experiment: Antibacterial activity on gram-negative strains; details: result in words
Experimental: as §2

[14] = tested on: Haemophilus Influenzae 351GR6; experiment: Antibacterial activity on gram-negative strains; details: result in words
Experimental: as §2

[15] = tested on: Haemophilus Influenzae 351CA1; experiment: Antibacterial activity on gram-negative strains; details: result in words
Experimental: as §2

[16] = tested on: Haemophilus Influenzae 351HT3; experiment: Antibacterial activity on gram-negative strains; details: result in words
Experimental: as §2

Row | MIC [1] | MIC [2] | MIC [3] | MIC [4] | MIC [5] | MIC [6] | MIC [7] | MIC [8] | MIC [9] | MIC [10] | MIC [11] | MIC [12] | Structure (SMILES) | activité sur les souches bactériennes à gram⊖ [13] | activité sur les souches bactériennes à gram⊖ [14] | activité sur les souches bactériennes à gram⊖ [15] | activité sur les souches bactériennes à gram⊖ [16]
1 | ≤ 0.02 µg/mL | 0.08 µg/mL (≈ 0.0983 µM) | ≤ 0.02 µg/mL | 0.02 µg/mL (≈ 0.0246 µM) | 0.08 µg/mL (≈ 0.0983 µM) | ≤ 0.02 µg/mL | ≤ 0.02 µg/mL | ≤ 0.02 µg/mL | 0.08 µg/mL (≈ 0.0983 µM) | ≤ 0.02 µg/mL | ≤ 0.02 µg/mL | 0.08 µg/mL (≈ 0.0983 µM) | CC[C@H]1OC(=O)[C@H](C)C(=O)[C@H](C)[C@@H](O[C@@H]2O[C@H](C)C[C@H](N(C)C)[C@H]2O)[C@](C)(OC)C[C@@H](C)C(=O)[C@H](C)[C@H]2N(COCCn3cnc(-c4cccnc4)c3)C(=O)O[C@]12C [Ex. 2] | – | – | – | –
2 | ≤ 0.02 µg/mL | 0.08 µg/mL (≈ 0.107 µM) | ≤ 0.04 µg/mL | ≤ 0.02 µg/mL | 0.04 µg/mL (≈ 0.0536 µM) | ≤ 0.02 µg/mL | ≤ 0.02 µg/mL | ≤ 0.02 µg/mL | 0.15 µg/mL (≈ 0.201 µM) | ≤ 0.02 µg/mL | ≤ 0.02 µg/mL | 0.04 µg/mL (≈ 0.0536 µM) | CC[C@H]1OC(=O)[C@H](C)C(=O)[C@H](C)[C@@H](O[C@@H]2O[C@H](C)C[C@H](N(C)C)[C@H]2O)[C@](C)(OC)C[C@@H](C)C(=O)[C@H](C)[C@H]2N(COCCc3ccccc3)C(=O)O[C@]12C [Ex. 3, 11,12-didéoxy-3-de[(2,6-didéoxy-3-C-méthyl-3-O-méthyl-alpha-L-ribo-hexopyranosyl)oxy]-6-O-méthyl-3-oxo-12,11-[oxycarbonyl[[(2-phényléthoxy)méthyl]imino]]-érythromycine] | – | – | – | –
3 | – | – | – | – | – | – | – | – | – | – | – | – | CC[C@H]1OC(=O)[C@H](C)C(=O)[C@H](C)[C@@H](O[C@@H]2O[C@H](C)C[C@H](N(C)C)[C@H]2O)[C@](C)(OC)C[C@@H](C)C(=O)[C@H](C)[C@H]2N(COCCOC)C(=O)O[C@]12C [exemple 1, 11,12-didéoxy-3-de[(2,6-didéoxy-3-C-méthyl-3-O-méthyl-alpha-L-ribo-hexopyranosyl)oxy]-6-O-méthyl-3-oxo-12,11-[oxycarbonyl[[(2-méthoxyéthoxy)méthyl]imino]]-érythromycine] | activité intéressante | activité intéressante | activité intéressante | activité intéressante
